{"source": "patent US12629374B2", "about": "“Antimalarial agents” (Merck Sharp & Dohme LLC, priority 2020, dated 2026)", "data": [{"system": "ring stage parasites", "assay": "Parasite growth potency assay, 72 hours, LDH readout", "type": "cell-based", "conditions": "72 h, parasite growth measured by LDH assay after 72 hours at 37° C.; 0.7% rings, 2% haematocrit; read-out: EC50", "in_short": "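Parasite growth was quantified by LDH assay after a −80 °C freeze-thaw. Before that, compound was incubated for 72 h at 37 °C under humidified gas with ring-stage cultures adjusted to 0.7% parasitemia and 2% haematocrit in serum- and albumax-supplemented RPMI-Hepes.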", "units": {"EC50": "nM"}, "values": [{"molecule": "CCC[C@H](c1cncc(C(=O)N[C@H]2CCOc3ccccc32)c1)N1C(=N)NC(CC)(CC)CC1=O", "note": "[Example 50, [1-[1-[5-[[(4S)-chroman-4-yl]carbamoyl]pyridin-1-ium-3-yl]butyl]-4,4-diethyl-6-oxo-hexahydropyrimidin-2-ylidene]ammonium; 2,2,2-trifluoroacetate]", "EC50": 0.4}, {"molecule": "CC[C@]1(c2ccccc2)CC(=O)N(Cc2cc(F)cc(C(=O)N[C@H]3CCOc4ccccc43)c2)C(=N)N1", "note": "[Example 52, [(4R)-1-[[3-[[(4S)-chroman-4-yl]carbamoyl]-5-fluoro-phenyl]methyl]-4-ethyl-6-oxo-4-phenyl-hexahydropyrimidin-2-ylidene]ammonium; 2,2,2-trifluoroacetate]", "EC50": 20.1}, {"molecule": "CC[C@]1(c2ccccc2)CC(=O)N(Cc2cc(F)cc(C(=O)N[C@@H]3c4ccccc4C[C@H]3O)c2)C(=N)N1", "note": "[Example 53, [(4R)-4-ethyl-1-[[3-fluoro-5-[[(1R,2R)-2-hydroxyindan-1-yl]carbamoyl]phenyl]methyl]-6-oxo-4-phenyl-hexahydropyrimidin-2-ylidene]ammonium; 2,2,2-trifluoroacetate]", "EC50": 25.3}, {"molecule": "CCC1(CC)CC(=O)N([C@H](CCN2CCOCC2)c2cccc(C(=O)N[C@H]3CCOc4ccccc43)c2)C(=N)N1", "note": "[Example 54, [1-[1-[3-[[(4S)-chroman-4-yl]carbamoyl]phenyl]-3-morpholin-4-ium-4-yl-propyl]-4,4-diethyl-6-oxo-hexahydropyrimidin-2-ylidene]ammonium; 2,2,2-trifluoroacetate]", "EC50": 5.6}, {"molecule": "CCC1(CC)CC(=O)N([C@H](CCN2CCOCC2)c2cccc(C(=O)N[C@@H]3c4ccccc4C[C@H]3O)c2)C(=N)N1", "note": "[Example 55, [4,4-diethyl-1-[1-[3-[[(1R,2R)-2-hydroxyindan-1-yl]carbamoyl]phenyl]-3-morpholin-4-ium-4-yl-propyl]-6-oxo-hexahydropyrimidin-2-ylidene]ammonium; 2,2,2-trifluoroacetate]", "EC50": 9.8}, {"molecule": "CCC1(CC)CC(=O)N([C@H](CCOC)c2cccc(C(=O)N[C@H]3CCOc4ccccc43)c2)C(=N)N1", "note": "[Example 56, [1-[1-[3-[[(4S)-chroman-4-yl]carbamoyl]phenyl]-3-methoxy-propyl]-4,4-diethyl-6-oxo-hexahydropyrimidin-2-ylidene]ammonium; 2,2,2-trifluoroacetate]", "EC50": 0.5}, {"molecule": "CCC[C@H](c1cncc(C(=O)N[C@@H]2c3ccccc3C[C@H]2O)c1)N1C(=N)NC(CC)(CC)CC1=O", "note": "[Example 57, [4,4-diethyl-1-[1-[5-[[(1R,2R)-2-hydroxyindan-1-yl]carbamoyl]pyridin-1-ium-3-yl]butyl]-6-oxo-hexahydropyrimidin-2-ylidene]ammonium; 2,2,2-trifluoroacetate]", "EC50": 0.6}, {"molecule": "CCC1(CC)CC(=O)N([C@H](CCN2CCCC2)c2cccc(C(=O)N[C@H]3CCOc4ccccc43)c2)C(=N)N1", "note": "[Example 58, [1-[1-[3-[[(4S)-chroman-4-yl]carbamoyl]phenyl]-3-pyrrolidin-1-ium-1-yl-propyl]-4,4-diethyl-6-oxo-hexahydropyrimidin-2-ylidene]ammonium; 2,2,2-trifluoroacetate]", "EC50": 1.3}, {"molecule": "CCC1(CC)CC(=O)N([C@H](CCO)c2cccc(C(=O)N[C@H]3CCOc4ccccc43)c2)C(=N)N1", "note": "[Example 59, [1-[1-[3-[[(4S)-chroman-4-yl]carbamoyl]phenyl]-3-hydroxy-propyl]-4,4-diethyl-6-oxo-hexahydropyrimidin-2-ylidene]ammonium; 2,2,2-trifluoroacetate]", "EC50": 4.7}, {"molecule": "CC[C@@]1(C(C)C)CC(=O)N(Cc2cc(F)cc(C(=O)N[C@H]3CCOc4ccccc43)c2)C(=N)N1", "note": "[Example 60, [(4S)-1-[[3-[[(4S)-chroman-4-yl]carbamoyl]-5-fluoro-phenyl]methyl]-4-ethyl-4-isopropyl-6-oxo-hexahydropyrimidin-2-ylidene]ammonium; 2,2,2-trifluoroacetate]", "EC50": 5.8}, {"molecule": "CC[C@@]1(C(C)C)CC(=O)N(Cc2cc(F)cc(C(=O)N[C@@H]3c4ccccc4C[C@H]3O)c2)C(=N)N1", "note": "[Example 61, [(4S)-4-ethyl-1-[[3-fluoro-5-[[(1R,2R)-2-hydroxyindan-1-yl]carbamoyl]phenyl]methyl]-4-isopropyl-6-oxo-hexahydropyrimidin-2-ylidene]ammonium; 2,2,2-trifluoroacetate]", "EC50": 6.1}, {"molecule": "CC[C@@]1(C(F)(F)F)CC(=O)N(Cc2cc(F)cc(C(=O)N[C@H]3CCOc4ccccc43)c2)C(=N)N1", "note": "[Example 63, [(4S)-1-[[3-[[(4S)-chroman-4-yl]carbamoyl]-5-fluoro-phenyl]methyl]-4-ethyl-6-oxo-4-(trifluoromethyl)hexahydropyrimidin-2-ylidene]ammonium; 2,2,2-trifluoroacetate]", "EC50": 80.2}, {"molecule": "CCC[C@H](c1cccc(C(=O)N[C@H]2CCOc3ccccc32)c1)N1C(=N)N[C@@](CC2CC2)(c2ccccc2)CC1=O", "note": "[Example 64, [(4R)-1-[(1R)-1-[3-[[(4S)-chroman-4-yl]carbamoyl]phenyl]butyl]-4-(cyclopropylmethyl)-6-oxo-4-phenyl-hexahydropyrimidin-2-ylidene]ammonium; 2,2,2-trifluoroacetate]", "EC50": 75.4}, {"molecule": "CCC[C@H](c1cccc(C(=O)N[C@@H]2c3ccccc3C[C@H]2O)c1)N1C(=N)N[C@@](CC2CC2)(c2ccccc2)CC1=O", "note": "[Example 65, [(4R)-4-(cyclopropylmethyl)-1-[(1R)-1-[3-[[(1R,2R)-2-hydroxyindan-1-yl]carbamoyl]phenyl]butyl]-6-oxo-4-phenyl-hexahydropyrimidin-2-ylidene]ammonium; 2,2,2-trifluoroacetate]", "EC50": 43.9}, {"molecule": "CCC[C@H](c1cccc(C(=O)N[C@H]2CCOc3ccccc32)c1)N1C(=N)N[C@@](CC)(c2ccccc2)CC1=O", "note": "[Example 66, [(4R)-1-[(1R)-1-[3-[[(4S)-chroman-4-yl]carbamoyl]phenyl]butyl]-4-ethyl-6-oxo-4-phenyl-hexahydropyrimidin-2-ylidene]ammonium; 2,2,2-trifluoroacetate]", "EC50": 7.5}, {"molecule": "CCC[C@H](c1cccc(C(=O)N[C@@H]2c3ccccc3C[C@H]2O)c1)N1C(=N)N[C@@](CC)(c2ccccc2)CC1=O", "note": "[Example 67, [(4R)-4-ethyl-1-[(1R)-1-[3-[[(1R,2R)-2-hydroxyindan-1-yl]carbamoyl]phenyl]butyl]-6-oxo-4-phenyl-hexahydropyrimidin-2-ylidene]ammonium; 2,2,2-trifluoroacetate]", "EC50": 2.7}, {"molecule": "CCC[C@H](c1cccc(C(=O)N[C@H]2CCOc3ccccc32)c1)N1C(=N)N[C@](CC2CC2)(c2ccccc2)CC1=O", "note": "[Example 68, [(4S)-1-[(1R)-1-[3-[[(4S)-chroman-4-yl]carbamoyl]phenyl]butyl]-4-(cyclopropylmethyl)-6-oxo-4-phenyl-hexahydropyrimidin-2-ylidene]ammonium; 2,2,2-trifluoroacetate]", "EC50": 72.2}, {"molecule": "CCC[C@H](c1cccc(C(=O)N[C@@H]2c3ccccc3C[C@H]2O)c1)N1C(=N)N[C@](CC2CC2)(c2ccccc2)CC1=O", "note": "[Example 69, [(4S)-4-(cyclopropylmethyl)-1-[(1R)-1-[3-[[(1R,2R)-2-hydroxyindan-1-yl]carbamoyl]phenyl]butyl]-6-oxo-4-phenyl-hexahydropyrimidin-2-ylidene]ammonium; 2,2,2-trifluoroacetate]", "EC50": 29.3}, {"molecule": "CCC[C@H](c1cccc(C(=O)N[C@H]2CCOc3ccccc32)c1)N1C(=N)N[C@](CC)(c2ccccc2)CC1=O", "note": "[Example 70, [(4S)-1-[(1R)-1-[3-[[(4S)-chroman-4-yl]carbamoyl]phenyl]butyl]-4-ethyl-6-oxo-4-phenyl-hexahydropyrimidin-2-ylidene]ammonium; 2,2,2-trifluoroacetate]", "EC50": 76}, {"molecule": "CCC[C@H](c1cccc(C(=O)N[C@@H]2c3ccccc3C[C@H]2O)c1)N1C(=N)N[C@](CC)(c2ccccc2)CC1=O", "note": "[Example 71, [(4S)-4-ethyl-1-[(1R)-1-[3-[[(1R,2R)-2-hydroxyindan-1-yl]carbamoyl]phenyl]butyl]-6-oxo-4-phenyl-hexahydropyrimidin-2-ylidene]ammonium; 2,2,2-trifluoroacetate]", "EC50": 9.3}, {"molecule": "CCC1(CC)CC(=O)N([C@H](CCC#N)c2cccc(C(=O)N[C@H]3CCOc4ccccc43)c2)C(=N)N1", "note": "[Example 73A, [1-[1-[3-[[(4S)-chroman-4-yl]carbamoyl]phenyl]-3-cyano-propyl]-4,4-diethyl-6-oxo-hexahydropyrimidin-2-ylidene]ammonium; 2,2,2-trifluoroacetate]", "EC50": 0.7}, {"molecule": "CC#CCC[C@H](c1cccc(C(=O)N[C@H]2CCOc3ccccc32)c1)N1C(=N)NC(CC)(CC)CC1=O", "note": "[Example 74, [1-[1-[3-[[(4S)-chroman-4-yl]carbamoyl]phenyl]hex-4-ynyl]-4,4-diethyl-6-oxo-hexahydropyrimidin-2-ylidene]ammonium; 2,2,2-trifluoroacetate]", "EC50": 0.9}, {"molecule": "CC(C)[C@]1(C)CC(=O)N(Cc2cccc(C(=O)N[C@H]3CCc4ccccc43)c2)C(=N)N1", "note": "[Example 75, [(4S)-1-[[3-[[(1S)-indan-1-yl]carbamoyl]phenyl]methyl]-4-isopropyl-4-methyl-6-oxo-hexahydropyrimidin-2-ylidene]ammonium; 2,2,2-trifluoroacetate]", "EC50": 66.5}, {"molecule": "CCC[C@H](c1cccc(C(=O)N[C@H]2CCc3ccccc32)c1)N1C(=N)NC(CC)(CC)CC1=O", "note": "[Example 76, [4,4-diethyl-1-[1-[3-[[(1S)-indan-1-yl]carbamoyl]phenyl]butyl]-6-oxo-hexahydropyrimidin-2-ylidene]ammonium; 2,2,2-trifluoroacetate]", "EC50": 0.9}, {"molecule": "CCC1(CC)CC(=O)N(Cc2cccc(C(=O)N[C@H]3CCc4ccccc43)c2)C(=N)N1", "note": "[Example 77, [4,4-diethyl-1-[[3-[[(1S)-indan-1-yl]carbamoyl]phenyl]methyl]-6-oxo-hexahydropyrimidin-2-ylidene]ammonium; 2,2,2-trifluoroacetate]", "EC50": 14.7}, {"molecule": "C=C=C(C)[C@H](c1cccc(C(=O)N[C@H]2CCOc3ccccc32)c1)N1C(=N)NC(CC)(CC)CC1=O", "note": "[Example 78, [1-[1-[3-[[(4S)-chroman-4-yl]carbamoyl]phenyl]-2-methyl-buta-2,3-dienyl]-4,4-diethyl-6-oxo-hexahydropyrimidin-2-ylidene]ammonium; 2,2,2-trifluoroacetate]", "EC50": 3.1}]}]}
